Measurements published in patent US10138466B2, “Compositions and methods for differentiating stem cells into cell populations comprising beta-like cells” (REGENERATIVE MEDICAL SOLUTIONS, INC., priority 2014, dated 2018).

Tests used:
differentiated cells = experiment: GSIS test of differentiated cells with Warfarin in stage 6 medium; assay type: cell-based, human
Procedure: 300 ng/ml Noggin was added in step 4 and 10 uM ALK5i was added in step 5. In the final step, cells were transferred from transwell to suspension culture (in low attachment wells or flasks). […]
Warfarin was added at stage 6.

[1] = tested on: iPS derived beta-cell clusters; experiment: Response of iPS derived beta-cell clusters to tolbutamide; assay type: cell-based, human
Procedure: Experiments were conducted to determine the effect of shipping induced islet cells on Transwells. Cells were differentiated according to the protocol described in Example 15. (ProgenMixIII). Total differentiation time was 27 days and the final product was islet-like-clusters (ILCs) in suspension. On the day of shipment, ILCs were counted and divided into individual mouse dosages: one mouse dosage per bottle. Cells were sent by FedEx overnight at 4° C. using cold packs. Leftover ILCs from shipment were used as controls.
Results are shown in FIGS. 36-42. iPS derived beta-cell clusters responded to glucose challenge and tolbutamide, a KATP channel closer.

T cell = settings: high concentrations (1 μg/mL), murine models of T1D; cited from earlier work
NKX6.1 expression = experiment: EGF at stage 5 of differentiation, NKX6.1 expression; assay type: cell-based, human; settings: Ten to fifty ng/ml EGF at stage 5
Procedure: EGF was added at stage 5.

## CC(=O)CC(c1ccccc1)c1c(O)c2ccccc2oc1=O (stereo not drawn) [Warfarin]
Differentiated cells; 2 uM Warfarin in stage 6
  SI (stimulation index) in GSIS test: 3.0
Differentiated cells; 5 uM Warfarin in stage 6
  SI (stimulation index) in GSIS test: 3.8
Differentiated cells; warfarin in the final media
  stimulation index in GSIS test: significantly increased

## CCCCNC(=O)NS(=O)(=O)c1ccc(C)cc1 [tolbutamide]
[1]
  response to tolbutamide, a KATP channel closer: responded

## CXCL12: immune modulating chemokine, T-cell chemorepellent
T cell
  action on T cells: T cell chemorepellent

## EGF: growth factor added at stage 5 of differentiation
NKX6.1 expression
  NKX6.1 expression at end: enhance NKX6.1 expression
